Laboratory results from patent US20030199530A1, “New compounds derived from quinazoline” (priority 2002, published 2003).

Assays:
[1] = test system: cells transfected with v-H-ras; assay: Cell proliferation test (MTT) on RAT2 fibroblasts transfected with v-H-ras; format: cell-based; conditions: Rattus norvegicus, 96 h, RAT2 transfectant, 10% serum, four days, read-out: IC50 of inhibition of growth of cells transfected by the oncogene v-H-ras
Description: a) The RAT2 line of rat fibroblasts and an appropriate transfectant for the insertion of the gene v-H-ras were used to test the effectiveness of the claimed products on cells.
The parental and transfected cells are cultured in 96-well plates for cell culture in the presence of medium containing 10% serum. Twenty four hours later, the test products are added to the same medium over a period of four days and the final quantity of cells is estimated indirectly by the cell viability method using 3-(4,5-dimethylthiazol-2-yl)-2,5-diphenyltetrazolium bromide (MTT).

[2] = target: T1, FTase (Rattus norvegicus, UniProt Q02293+Q04631); assay: FTase enzyme test (scintillation proximity assay); format: biochemical; conditions: rat brain FTase, biotinylated lamin B peptide, [3H]farnesyl pyrophosphate, 37° C., one hour; read-out: IC50 with respect to FTase
T1 construct: The two enzymes FTase and GGTase-I were purified starting from rat's brain; from tissue; host or cells: rat brain
Description: The two enzymes FTase and GGTase-I were purified starting from rat's brain. After grinding and centrifuging, the supernatant is precipitated with 30% ammonium sulphate and the resulting supernatant is subjected to another precipitation with 50% ammonium sulphate. The pellet is then passed through a column of phenyl agarose and the fractions collected after elution with sodium chloride are evaluated for their enzyme content in accordance with the “scintillation proximity assay” method described hereinbelow. The fractions corresponding to one or other of the two enzymes are then combined and frozen at −80° C. until use.
The determination of the enzymatic activity of the FTase is carried out in 96-well plates by a radioactive scintillation proximity assay method. The acceptor substrate composed of the carboxy terminal sequence of lamin B (YRASNRSCAIM) coupled to biotin is incubated in the presence of the radiolabelled donor substrate ([^3H]farnesyl pyrophosphate), and of various concentrations of test compounds in dimethyl sulphoxide (DMSO). The reaction is initiated at 37° C. by adding FTase enzyme for a duration of one hour, and is then stopped with an appropriate buffer containing a suspension of beads impregnated with scintillant. […]

Compound `CC(C)(C)OC(=O)Nc1ccc(-n2c(=O)c3ccccc3n(CC(Cc3ccccc3)Cn3ccnc3)c2=O)cc1` (centres unmarked) [Example 2, tert-Butyl 4-(1-[2-benzyl-3-(1H-imidazol-1-yl)propyl]-2,4-dioxo-1,4-dihydro-3(2H)-quinazolinyl)phenylcarbamate] has an IC50 [1] of 9 nM and an IC50 [2] of 19 nM.
